Data as given in the NIST ThermoML archive (doi:10.1021/acs.jced.5b00077).
Numbers after ± are expanded uncertainties.

Columns and labels:
[1] = for surface tension liquid-gas: Ring tensiometer; for electrical conductivity: 101.33 kPa, Liquid, Alternating current cell with electrodes
[2] = refractive index (Na D-line) (dimensionless); conditions: 101.33 kPa, Liquid, Standard Abbe refractometry

| Compound | surface tension liquid-gas ([1]; 293.15 K) [mN/m] | electrical conductivity ([1]; 293.15 K) [S/m] | surface tension liquid-gas ([1]; 298.15 K) [mN/m] | electrical conductivity ([1]; 298.15 K) [S/m] | surface tension liquid-gas ([1]; 303.15 K) [mN/m] | electrical conductivity ([1]; 303.15 K) [S/m] | surface tension liquid-gas ([1]; 308.15 K) [mN/m] | electrical conductivity ([1]; 308.15 K) [S/m] | surface tension liquid-gas ([1]; 313.15 K) [mN/m] | electrical conductivity ([1]; 313.15 K) [S/m] | surface tension liquid-gas ([1]; 318.15 K) [mN/m] | electrical conductivity ([1]; 318.15 K) [S/m] | surface tension liquid-gas ([1]; 323.15 K) [mN/m] | electrical conductivity ([1]; 323.15 K) [S/m] | surface tension liquid-gas ([1]; 328.15 K) [mN/m] | electrical conductivity ([1]; 328.15 K) [S/m] | surface tension liquid-gas ([1]; 333.15 K) [mN/m] | electrical conductivity ([1]; 333.15 K) [S/m] | refractive index ([2]; 293.15 K) | refractive index ([2]; 298.15 K) | also measured |
| --- | --- | --- | --- | --- | --- | --- | --- | --- | --- | --- | --- | --- | --- | --- | --- | --- | --- | --- | --- | --- | --- |
| CCC[NH3+].O=C[O-] [propylammonium formate] | 37.8 ± 1.1 | 0.31 ± 0.01 | 37.4 ± 1.1 | 0.36 ± 0.01 | 37 ± 1.1 | 0.44 ± 0.01 | 36.6 ± 1 | 0.51 ± 0.01 | 36.2 ± 1 | 0.59 ± 0.01 | 35.8 ± 1 | 0.68 ± 0.01 | 35.4 ± 1 | 0.78 ± 0.01 | 35 ± 1 | 0.87 ± 0.01 | 34.6 ± 1 | 1 ± 0.01 | 1.44 ± 0.0012 | 1.4386 ± 0.0012 | refractive index ([2]; 303.15 K): 1.4372 ± 0.0012; refractive index ([2]; 308.15 K): 1.4356 ± 0.0012; refractive index ([2]; 313.15 K): 1.4341 ± 0.0012; refractive index ([2]; 318.15 K): 1.4326 ± 0.0012; refractive index ([2]; 323.15 K): 1.431 ± 0.0012; refractive index ([2]; 328.15 K): 1.4295 ± 0.0012; refractive index ([2]; 333.15 K): 1.428 ± 0.0012 |
| O=C([O-])C(F)(F)F.[NH3+]CCCO [3-hydroxypropylammonium trifluoroacetate] | 38.2 ± 1.1 | 0.03 ± 0.01 | 37.8 ± 1.1 | 0.04 ± 0.01 | 37.4 ± 1.1 | 0.06 ± 0.01 | 37 ± 1.1 | 0.09 ± 0.01 | 36.5 ± 1 | 0.12 ± 0.01 | 36.1 ± 1 | 0.16 ± 0.01 | 35.7 ± 1 | 0.2 ± 0.01 | 35.3 ± 1 | 0.25 ± 0.01 | 34.9 ± 1 | 0.31 ± 0.01 | 1.4113 ± 0.0012 | 1.4101 ± 0.0012 | refractive index ([2]; 303.15 K): 1.409 ± 0.0012; refractive index ([2]; 308.15 K): 1.4078 ± 0.0012; refractive index ([2]; 313.15 K): 1.4067 ± 0.0012; refractive index ([2]; 318.15 K): 1.4055 ± 0.0012; refractive index ([2]; 323.15 K): 1.4044 ± 0.0012; refractive index ([2]; 328.15 K): 1.4032 ± 0.0012; refractive index ([2]; 333.15 K): 1.402 ± 0.0012 |
| CC(=O)[O-].CCC[NH3+] [propylammonium acetate] | 33.5 ± 1 | 0.04 ± 0.01 | 33.1 ± 1 | 0.06 ± 0.01 | 32.7 ± 0.9 | 0.08 ± 0.01 | 32.2 ± 0.9 | 0.1 ± 0.01 | 31.8 ± 0.9 | 0.14 ± 0.01 | 31.4 ± 0.9 | 0.17 ± 0.01 | 31 ± 0.9 | 0.22 ± 0.01 | 30.6 ± 0.9 | 0.27 ± 0.01 | 30.2 ± 0.9 | 0.33 ± 0.01 | 1.4383 ± 0.0012 | 1.4369 ± 0.0012 | refractive index ([2]; 303.15 K): 1.4356 ± 0.0012; refractive index ([2]; 308.15 K): 1.4341 ± 0.0012; refractive index ([2]; 313.15 K): 1.4328 ± 0.0012; refractive index ([2]; 318.15 K): 1.4313 ± 0.0012; refractive index ([2]; 323.15 K): 1.4301 ± 0.0012; refractive index ([2]; 328.15 K): 1.4287 ± 0.0012; refractive index ([2]; 333.15 K): 1.4273 ± 0.0012 |
| O=C[O-].[NH3+]CCCO [3-hydroxypropylammonium formate] | 56.9 ± 1.6 | 0.11 ± 0.01 | 56.4 ± 1.6 | 0.14 ± 0.01 | 55.9 ± 1.6 | 0.17 ± 0.01 | 55.4 ± 1.6 | 0.21 ± 0.01 | 54.9 ± 1.5 | 0.26 ± 0.01 | 54.4 ± 1.5 | 0.3 ± 0.01 | 54 ± 1.5 | 0.36 ± 0.01 | 53.5 ± 1.5 | 0.42 ± 0.01 | 53 ± 1.5 | 0.49 ± 0.01 | 1.4678 ± 0.0012 | 1.4667 ± 0.0012 | refractive index ([2]; 303.15 K): 1.4655 ± 0.0012; refractive index ([2]; 308.15 K): 1.4644 ± 0.0012; refractive index ([2]; 313.15 K): 1.4632 ± 0.0012; refractive index ([2]; 318.15 K): 1.4621 ± 0.0012; refractive index ([2]; 323.15 K): 1.461 ± 0.0012; refractive index ([2]; 328.15 K): 1.4598 ± 0.0012; refractive index ([2]; 333.15 K): 1.4586 ± 0.0012 |
| CC(=O)[O-].[NH3+]CCCO [3-hydroxypropylammonium acetate] | 48 ± 1.4 | 0.01 ± 0.01 | 47.5 ± 1.3 | 0.01 ± 0.01 | 47 ± 1.3 | 0.01 ± 0.01 | 46.5 ± 1.3 | 0.02 ± 0.01 | 46 ± 1.3 | 0.02 ± 0.01 | 45.5 ± 1.3 | 0.03 ± 0.01 | 45 ± 1.3 | 0.04 ± 0.01 | 44.5 ± 1.3 | 0.05 ± 0.01 | 44 ± 1.2 | 0.06 ± 0.01 | 1.4663 ± 0.0012 | 1.4652 ± 0.0012 | refractive index ([2]; 303.15 K): 1.464 ± 0.0012; refractive index ([2]; 308.15 K): 1.4628 ± 0.0012; refractive index ([2]; 313.15 K): 1.4616 ± 0.0012; refractive index ([2]; 318.15 K): 1.4605 ± 0.0012; refractive index ([2]; 323.15 K): 1.4593 ± 0.0012; refractive index ([2]; 328.15 K): 1.4581 ± 0.0012; refractive index ([2]; 333.15 K): 1.457 ± 0.0012 |
